The results in this text go back to PubChem BioAssay (NCI).

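Values below derive from 48-hour exposures of cells grown in 96-well plates, with endpoints linearly interpolated between the two concentrations bracketing the appropriate inhibition level. At the GI50, growth is halved. TGI denotes the concentration required for complete inhibition of growth.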 Bounds are passed on as bounds.

The first experiment concerns IGROV1 ovarian. Nature of the experiment: NCI anticancer screen, dose series, 48 h.
The molecule `Clc1ccc(C(c2ccc(Cl)cc2)c2ccccn2)cc1` showed a TGI above 100 µM.
On the same count and under the same terms, in the case of `C[Si](C)(C)C1(Sc2ccccc2)SCCCS1` it was above 100 µM; in that of `CC(C)(C)OC(=O)N[C@H]1CC2(C=C(Cl)C(=O)C(Cl)=C2)OC1=O`, 36 µM.
In turn, `O=c1cc(-c2ccccc2)oc2cc(OCCCOc3ccc4c(=O)cc(-c5ccccc5)oc4c3)ccc12` came in with a TGI above 100 µM.

The test system of another experiment is MDA-MB-231 breast. As to the kind of experiment: NCI anticancer screen, dose series, 48 h.
In the case of `Nc1ncnc2c1nnn2C1OC(CO)C(O)C1O` (stereo unspecified), the GI50 was 0.232 µM and the TGI was determined as 3.99 µM.
Turning to `COc1cc2c(c(OC)c1OC)-c1ccc(OC)c(=O)cc1C(NC(=O)c1ccc(N=[N+]=[N-])cc1)CC2` (stereo unspecified), the TGI was 12.5 µM.
Regarding `CCCCCCCCC/C=C1\CCC(CN2CCOCC2)C1=O` (stereo unspecified), the TGI was found to be 11.2 µM.
For the molecule `OCc1ccc(-c2ccc(-c3ccc(CO)s3)o2)s1`, the TGI is above 92.2 µM.
`CC(C)(C)OC(=O)N[C@H]1CC2(C=C(Cl)C(=O)C(Cl)=C2)OC1=O` came in with a TGI of 33.8 µM.

The subject of a further experiment is OVCAR-5 ovarian. Nature of the experiment: NCI anticancer screen, dose series, 48 h.
Molecule `CCOC(=O)NC(=O)c1cn(CCCO)c(=O)[nH]c1=O` registered a TGI above 100 µM.
Same read-out and setting: to `CCN1c2ccccc2C(C(SC)S(=O)(=O)c2ccc(C)cc2)c2c1[nH]c(=O)n(C)c2=O` (stereo unspecified) belongs above 100 µM.
The same measure, in the same setting: to `Nc1ncnc2c1nnn2C1OC(CO)C(O)C1O` (stereo unspecified) belongs 15.4 µM; to `Cn1cnc([N+](=O)[O-])c1Sc1nc2ccccc2[nH]1`, above 100 µM.
Consider `COc1cc2c(c(OC)c1OC)-c1ccc(OC)c(=O)cc1C(NC(=O)c1ccc(N=[N+]=[N-])cc1)CC2` (stereo unspecified), for which the TGI is above 100 µM.
With `CCCCCCCCC/C=C1\CCC(CN2CCOCC2)C1=O` (stereo unspecified), the TGI came to 31.6 µM.
In turn, `C/C(=N\NC(=S)NC(CCC(=O)O)C(=O)O)c1ccccn1` (stereo unspecified) gave a TGI above 100 µM.
`CCOC(=O)C(=C=C=C(c1ccccc1)c1ccccc1)C(=O)OCC` had a TGI of 35.5 µM.
For the molecule `OCc1ccc(-c2ccc(-c3ccc(CO)s3)o2)s1`, the TGI amounted to 0.102 µM.
Same read-out and setting: in the case of `c1ccc(COc2cccc3ccc[n+](Cc4ccccc4)c23)cc1` it was 9.98 µM.
Same read-out and setting: to `CN(C)c1ccc(/C=C(\NC(=O)c2ccccc2)c2nc3ncncc3[nH]2)cc1` belongs above 100 µM; to `CCOC(=O)CC(=O)ON(C)C(C)=O`, above 100 µM; to `CCc1cc(Cc2cc(CC)c(NC(=O)C(=O)Cc3ccccn3)c(CC)c2Cl)c(Cl)c(CC)c1NC(=O)C(=O)Cc1ccccn1`, above 100 µM.
Molecule `CC(C)OP(=O)(OC(C)C)C(=NCCN=C(NNc1ccc([N+](=O)[O-])cc1)P(=O)(OC(C)C)OC(C)C)NNc1ccc([N+](=O)[O-])cc1` returned a TGI above 100 µM.
Same read-out and setting: to `COC(OC)C(C)CC(=O)N(C)C` (stereo unspecified) belongs above 100 µM; to `CC(C)=Cc1cc(C(=O)Nc2ccc(Cl)c(Cl)c2)nc(N)n1`, above 100 µM.
Take `C#CC1(O)CCC2C3CCc4cc(Oc5nc(F)nc(-c6c7ccccc7c7sc8ccccc8n67)n5)ccc4C3CC[C@@]21C` (stereo partly specified): the TGI is above 100 µM.
On the same count and under the same terms, in the case of `CC(=O)/C(=C\c1cccc([N+](=O)[O-])c1)C(=O)Nc1ccccc1C` it was above 100 µM.
Still for that read-out and setting: in the case of `Clc1ccc(C(c2ccc(Cl)cc2)c2ccccn2)cc1` it was 29.5 µM; in that of `C[Si](C)(C)C1(Sc2ccccc2)SCCCS1`, above 100 µM.
Take `CC(C)(C)OC(=O)N[C@H]1CC2(C=C(Cl)C(=O)C(Cl)=C2)OC1=O`: the TGI was determined as 38.6 µM.
`O=c1cc(-c2ccccc2)oc2cc(OCCCOc3ccc4c(=O)cc(-c5ccccc5)oc4c3)ccc12` had a TGI above 100 µM.

In the next experiment the test system is PC-3 prostate. Nature of the experiment: NCI anticancer screen, dose series, 48 h.
As for `Nc1ncnc2c1nnn2C1OC(CO)C(O)C1O` (stereo unspecified), the GI50 is 0.247 µM and the TGI worked out at 5.38 µM.
`CCCCCCCCC/C=C1\CCC(CN2CCOCC2)C1=O` (stereo unspecified) had a TGI of 4.25 µM.
Consider `OCc1ccc(-c2ccc(-c3ccc(CO)s3)o2)s1`, for which the TGI is above 100 µM.
Same read-out and setting: to `CC(C)(C)OC(=O)N[C@H]1CC2(C=C(Cl)C(=O)C(Cl)=C2)OC1=O` belongs 32.1 µM.

Another experiment deals with SK-MEL-5 melanoma. Nature of the experiment: NCI anticancer screen, dose series, 48 h.
`CCOC(=O)NC(=O)c1cn(CCCO)c(=O)[nH]c1=O` came in with a TGI above 100 µM.
In turn, `CCN1c2ccccc2C(C(SC)S(=O)(=O)c2ccc(C)cc2)c2c1[nH]c(=O)n(C)c2=O` (stereo unspecified) returned a TGI above 100 µM.
Same read-out and setting: in the case of `COc1ccc(S(=O)(=O)NNS(C)(=O)=O)cc1` it was above 100 µM.
On the same count and under the same terms, to `Nc1ncnc2c1nnn2C1OC(CO)C(O)C1O` (stereo unspecified) belongs 5.63 µM.
In turn, `Cn1cnc([N+](=O)[O-])c1Sc1nc2ccccc2[nH]1` had a TGI of 26.2 µM.
Still for that read-out and setting: to `COc1cc2c(c(OC)c1OC)-c1ccc(OC)c(=O)cc1C(NC(=O)c1ccc(N=[N+]=[N-])cc1)CC2` (stereo unspecified) belongs 1.95 µM; to `CCCCCCCCC/C=C1\CCC(CN2CCOCC2)C1=O` (stereo unspecified), 18.8 µM.
Same read-out and setting: in the case of `C/C(=N\NC(=S)NC(CCC(=O)O)C(=O)O)c1ccccn1` (stereo unspecified) it was above 100 µM; in that of `OCc1ccc(-c2ccc(-c3ccc(CO)s3)o2)s1`, 69.7 µM.
On the same count and under the same terms, in the case of `CN(C)c1ccc(/C=C(\NC(=O)c2ccccc2)c2nc3ncncc3[nH]2)cc1` it was above 100 µM; in that of `CCOC(=O)CC(=O)ON(C)C(C)=O`, above 100 µM.
On to `CCc1cc(Cc2cc(CC)c(NC(=O)C(=O)Cc3ccccn3)c(CC)c2Cl)c(Cl)c(CC)c1NC(=O)C(=O)Cc1ccccn1`, for which the TGI was above 100 µM.
For the molecule `CC(C)OP(=O)(OC(C)C)C(=NCCN=C(NNc1ccc([N+](=O)[O-])cc1)P(=O)(OC(C)C)OC(C)C)NNc1ccc([N+](=O)[O-])cc1`, the TGI is above 100 µM.
`COC(OC)C(C)CC(=O)N(C)C` (stereo unspecified) showed a TGI above 100 µM.
The molecule `CC(C)=Cc1cc(C(=O)Nc2ccc(Cl)c(Cl)c2)nc(N)n1` registered a TGI above 100 µM.
The molecule `C#CC1(O)CCC2C3CCc4cc(Oc5nc(F)nc(-c6c7ccccc7c7sc8ccccc8n67)n5)ccc4C3CC[C@@]21C` (stereo partly specified) showed a TGI above 100 µM.
Same read-out and setting: in the case of `CC(=O)/C(=C\c1cccc([N+](=O)[O-])c1)C(=O)Nc1ccccc1C` it was above 100 µM; in that of `Clc1ccc(C(c2ccc(Cl)cc2)c2ccccn2)cc1`, 33 µM.
With `C[Si](C)(C)C1(Sc2ccccc2)SCCCS1`, the TGI is above 100 µM.
Still for that read-out and setting: to `CC(C)(C)OC(=O)N[C@H]1CC2(C=C(Cl)C(=O)C(Cl)=C2)OC1=O` belongs 38.5 µM; to `O=c1cc(-c2ccccc2)oc2cc(OCCCOc3ccc4c(=O)cc(-c5ccccc5)oc4c3)ccc12`, above 100 µM.

For another experiment, the system named is SNB-78 CNS. Nature of the experiment: NCI anticancer screen, dose series, 48 h.
Regarding `CCOC(=O)NC(=O)c1cn(CCCO)c(=O)[nH]c1=O`, the TGI was above 100 µM.
The molecule `CCN1c2ccccc2C(C(SC)S(=O)(=O)c2ccc(C)cc2)c2c1[nH]c(=O)n(C)c2=O` (stereo unspecified) had a TGI above 100 µM.
For `Nc1ncnc2c1nnn2C1OC(CO)C(O)C1O` (stereo unspecified), the TGI was above 100 µM.
For the molecule `CC(=O)OC1COC(n2ccc3cc(Br)c([N+](=O)[O-])cc32)C(OC(C)=O)C1OC(C)=O` (stereo unspecified), the TGI amounted to 84.6 µM.
Regarding `Cn1cnc([N+](=O)[O-])c1Sc1nc2ccccc2[nH]1`, the TGI amounted to 88 µM.
In turn, `COc1cc2c(c(OC)c1OC)-c1ccc(OC)c(=O)cc1C(NC(=O)c1ccc(N=[N+]=[N-])cc1)CC2` (stereo unspecified) registered a TGI above 100 µM.
The same measure, in the same setting: to `CCCCCCCCC/C=C1\CCC(CN2CCOCC2)C1=O` (stereo unspecified) belongs 15.3 µM; to `C/C(=N\NC(=S)NC(CCC(=O)O)C(=O)O)c1ccccn1` (stereo unspecified), above 100 µM.
With `CCOC(=O)C(=C=C=C(c1ccccc1)c1ccccc1)C(=O)OCC`, the TGI turned out to be 37 µM.
Same read-out and setting: in the case of `Cn1c2ccccc2c2cc(-c3ccccc3)c3c(c21)C(=O)c1ccccc1C3=O` it was 54.3 µM; in that of `CN(C)c1ccc(/C=C(\NC(=O)c2ccccc2)c2nc3ncncc3[nH]2)cc1`, above 100 µM; in that of `CCOC(=O)CC(=O)ON(C)C(C)=O`, above 100 µM.
The same measure, in the same setting: to `CCc1cc(Cc2cc(CC)c(NC(=O)C(=O)Cc3ccccn3)c(CC)c2Cl)c(Cl)c(CC)c1NC(=O)C(=O)Cc1ccccn1` belongs above 100 µM; to `COC(OC)C(C)CC(=O)N(C)C` (stereo unspecified), above 100 µM.
Molecule `CC(C)=Cc1cc(C(=O)Nc2ccc(Cl)c(Cl)c2)nc(N)n1` registered a TGI above 100 µM.
Turning to `CC(=O)/C(=C\c1cccc([N+](=O)[O-])c1)C(=O)Nc1ccccc1C`, the TGI was above 100 µM.
`Clc1ccc(C(c2ccc(Cl)cc2)c2ccccn2)cc1` yielded a TGI above 100 µM.
`C[Si](C)(C)C1(Sc2ccccc2)SCCCS1` gave a TGI above 100 µM.
For the molecule `CC(C)(C)OC(=O)N[C@H]1CC2(C=C(Cl)C(=O)C(Cl)=C2)OC1=O`, the TGI is 40 µM.
The same measure, in the same setting: in the case of `O=c1cc(-c2ccccc2)oc2cc(OCCCOc3ccc4c(=O)cc(-c5ccccc5)oc4c3)ccc12` it was above 100 µM.

Another experiment concerns XF 498 CNS. As to the kind of experiment: NCI anticancer screen, dose series, 48 h.
In turn, `CCOC(=O)NC(=O)c1cn(CCCO)c(=O)[nH]c1=O` yielded a TGI above 100 µM.
For the molecule `CCN1c2ccccc2C(C(SC)S(=O)(=O)c2ccc(C)cc2)c2c1[nH]c(=O)n(C)c2=O` (stereo unspecified), the TGI is above 100 µM.
Still for that read-out and setting: to `COc1ccc(S(=O)(=O)NNS(C)(=O)=O)cc1` belongs above 100 µM; to `Nc1ncnc2c1nnn2C1OC(CO)C(O)C1O` (stereo unspecified), 47.3 µM; to `CC(=O)OC1COC(n2ccc3cc(Br)c([N+](=O)[O-])cc32)C(OC(C)=O)C1OC(C)=O` (stereo unspecified), 30.5 µM.
Same read-out and setting: to `Cn1cnc([N+](=O)[O-])c1Sc1nc2ccccc2[nH]1` belongs 18.5 µM; to `C/C(=N\NC(=S)NC(CCC(=O)O)C(=O)O)c1ccccn1` (stereo unspecified), above 100 µM; to `CCOC(=O)C(=C=C=C(c1ccccc1)c1ccccc1)C(=O)OCC`, 30.3 µM.
In turn, `Cn1c2ccccc2c2cc(-c3ccccc3)c3c(c21)C(=O)c1ccccc1C3=O` showed a TGI of 39.7 µM.
As to `OCc1ccc(-c2ccc(-c3ccc(CO)s3)o2)s1`, the TGI is 0.356 µM.
Same read-out and setting: in the case of `c1ccc(COc2cccc3ccc[n+](Cc4ccccc4)c23)cc1` it was 31.4 µM; in that of `CN(C)c1ccc(/C=C(\NC(=O)c2ccccc2)c2nc3ncncc3[nH]2)cc1`, above 100 µM.
`CCOC(=O)CC(=O)ON(C)C(C)=O` showed a TGI above 100 µM.
As for `CCc1cc(Cc2cc(CC)c(NC(=O)C(=O)Cc3ccccn3)c(CC)c2Cl)c(Cl)c(CC)c1NC(=O)C(=O)Cc1ccccn1`, the TGI was above 100 µM.
Molecule `CC(C)OP(=O)(OC(C)C)C(=NCCN=C(NNc1ccc([N+](=O)[O-])cc1)P(=O)(OC(C)C)OC(C)C)NNc1ccc([N+](=O)[O-])cc1` returned a TGI of 9.04 µM.
`COC(OC)C(C)CC(=O)N(C)C` (stereo unspecified): the TGI was above 100 µM.
`CC(C)=Cc1cc(C(=O)Nc2ccc(Cl)c(Cl)c2)nc(N)n1` had a TGI above 100 µM.
`C#CC1(O)CCC2C3CCc4cc(Oc5nc(F)nc(-c6c7ccccc7c7sc8ccccc8n67)n5)ccc4C3CC[C@@]21C` (stereo partly specified): the TGI is above 100 µM.
The same measure, in the same setting: in the case of `CC(=O)/C(=C\c1cccc([N+](=O)[O-])c1)C(=O)Nc1ccccc1C` it was above 100 µM; in that of `Clc1ccc(C(c2ccc(Cl)cc2)c2ccccn2)cc1`, 34.8 µM; in that of `C[Si](C)(C)C1(Sc2ccccc2)SCCCS1`, above 100 µM.
Molecule `CC(C)(C)OC(=O)N[C@H]1CC2(C=C(Cl)C(=O)C(Cl)=C2)OC1=O` showed a TGI of 34.5 µM.
Same read-out and setting: in the case of `O=c1cc(-c2ccccc2)oc2cc(OCCCOc3ccc4c(=O)cc(-c5ccccc5)oc4c3)ccc12` it was above 100 µM.
